Data from patent US11773085B2 (Foghorn Therapeutics Inc., priority 2018, dated 2023).
One block for each molecule: values may come before it.

Columns and labels:
BRD9 bromodomain = BRD9 bromodomain (Homo sapiens (Human), UniProt Q9H8M2); assay: BRD9 bromodomain TR-FRET competition binding assay; settings: 3 nM Flag-BRD9, 3.75 nM biotinylated ligand, 90 minutes at room temperature
Description: Cleaved His tag was removed by purification.
A mixture of biotinylated-ligand and SureLight™ Allophycocyanin-Streptavidin (APC-SA, PerkinElmer AD0201) in 50 mM HEPES (pH 7.4), 50 mM NaCl, 1 mM TCEP (pH 7), 0.01% (v/v) Tween-20, 0.01% (w/v) bovine serum albumin was added to a white 384-well PerkinElmer Proxiplate Plus plate. DMSO or 3-fold serially diluted compounds were then added to the Proxiplate followed by addition of Flag-BRD9. After a 10 minute incubation at room temperature, Eu-W1024 anti-FLAG (PerkinElmer, AD0273) was added.

[1] = biological target: Nanoluciferase-BRD9 fusion protein (3×FLAG-NLuc-BRD9) (Homo sapiens (Human), UniProt Q9H8M2); assay: SYO1 BRD9 NanoLuc degradation assay; type: cell-based; settings: SYO-1 cells expressing 3×FLAG-NLuc-BRD9, 6 hours, 1 μM top dose; read-out: SYO1 BRD9-NanoLuc degradation IC50
Description: A stable SYO-1 cell line expressing 3×FLAG-NLuc-BRD9 was generated. On day 0 cells were seeded in 30 μL media into each well of 384-well cell culture plates. The seeding density was 8000 cells/well. […] Subsequently plates were incubated for 6 hours in a standard tissue culture incubator and equilibrated at room temperature for 15 minutes. Nanoluciferase activity was measured by adding 15 μL of freshly prepared Nano-Glo Luciferase Assay Reagent (Promega N1130), shaking the plates for 10 minutes and reading the bioluminescence using an EnVision reader.
The Inhibition % was calculated using the following formula: % Inhibition=100×(LumHC−LumSample)/(LumHC−LumLC). DMSO treated cells are employed as High Control (HC) and 1 μM of a known BRD9 degrader standard treated cells are employed as Low Control (LC).

SMILES: CNC(=O)[C@@H]1CCN1Cc1c(OC)cc(-c2cn(C)c(=O)c3cnccc23)cc1OC [Compound B56, (2S)-1-[[2,6-dimethoxy-4-(2-methyl-1-oxo-2,7-naphthyridin-4-yl)phenyl]methyl]-N-methylazetidine-2-carboxamide]
- IC50 (BRD9 bromodomain): 10 to 100 nM

SMILES: COc1cc(-c2cc(NC(=O)N(C)C)c3nnc(C)n3c2)cc(OC)c1CN(C)C [Compound B57, 1-(6-[4-[(dimethylamino)methyl]-3,5-dimethoxyphenyl]-3-methyl-[1,2,4]triazolo[4,3-a]pyridin-8-yl)-3,3-dimethylurea]
- IC50 (BRD9 bromodomain): > 1000 nM

SMILES: COc1cc(-c2cc(NC(=O)N(C)C)c3nncn3c2)cc(OC)c1CN(C)C [Compound B58, 1-(6-[4-[(dimethylamino)methyl]-3,5-dimethoxyphenyl]-[1,2,4]triazolo[4,3-a]pyridin-8-yl)-3,3-dimethylurea]
- IC50 (BRD9 bromodomain): > 1000 nM

SMILES: CNC(=O)c1ccc2c(-c3cc(OC)c(CN(C)C)c(OC)c3)cn(C)c(=O)c2c1 [Compound B59, 4-[4-[(dimethylamino)methyl]-3,5-dimethoxyphenyl]-N,2-dimethyl-1-oxoisoquinoline-7-carboxamide]
- IC50 (BRD9 bromodomain): 10 to 100 nM

SMILES: COc1cc(-c2cc(NC(C)=O)c3nnc(C)n3c2)cc(OC)c1CN(C)C [Compound B60, N-(6-[4-[(dimethylamino)methyl]-3,5-dimethoxyphenyl]-3-methyl-[1,2,4]triazolo[4,3-a]pyridin-8-yl)acetamide]
- IC50 (BRD9 bromodomain): 10 to 100 nM

SMILES: COc1cc(-c2nn(C)c(=O)c3cnccc23)cc(OC)c1CN(C)C [Compound B62, 1-(4-((dimethylamino)methyl)-3,5-dimethoxyphenyl)-3-methylpyrido[3,4-d]pyridazin-4(3H)-one 2,2,2-trifluoroacetate]
- IC50 (BRD9 bromodomain): 10 to 100 nM

SMILES: CNC(=O)c1ccc2c(=O)n(C)cc(-c3cc(OC)c(CN(C)C)c(OC)c3)c2c1 [Compound B63, 4-(4-((dimethylamino)methyl)-3,5-dimethoxyphenyl)-N,2-dimethyl-1-oxo-12-dihydroisoquinoline-6-carboxamide]
- IC50 (BRD9 bromodomain): 10 to 100 nM

SMILES: COc1cc(-c2cn(C)c(=O)c3cc(-c4nc5ccncc5[nH]4)ccc23)cc(OC)c1CN(C)C [Compound B64, 4-[4-[(dimethylamino)methyl]-3,5-dimethoxyphenyl]-7-[1H-imidazo[4,5-c]pyridin-2-yl]-2-methylisoquinolin-1-one]
- IC50 (BRD9 bromodomain): 10 to 100 nM

SMILES: COc1cc(-c2cn(C)c(=O)c3ccc(-c4nc5cnccc5[nH]4)cc23)cc(OC)c1CN(C)C [Compound B65, 4-(4-((dimethylamino)methyl)-3,5-dimethoxyphenyl)-6-(1H-imidazo[4,5-c]pyridin-2-yl)-2-methylisoquinolin-1(2H)-one]
- IC50 (BRD9 bromodomain): 10 to 100 nM

SMILES: COc1c(CN(C)C)ccc(-c2cn(C)c(=O)c3cnccc23)c1F [Compound B66, 4-(4-((dimethylamino)methyl)-2-fluoro-3-methoxyphenyl)-2-methyl-2,7-naphthyridin-1(2H)-one]
- IC50 (BRD9 bromodomain): 100 to 1000 nM

SMILES: COc1cc(-c2cn(C)c(=O)c3cnccc23)cc(F)c1CN(C)C [Compound B67, 4-(4-((dimethylamino)methyl)-3-fluoro-5-methoxyphenyl)-2-methyl-2,7-naphthyridin-1(2H)-one]
- IC50 (BRD9 bromodomain): 10 to 100 nM

SMILES: COc1cc(/C=C/c2c(C)noc2C)cc(OC)c1CN(C)C [Compound B68]
- IC50 (BRD9 bromodomain): > 1000 nM

The next lines start with the values.

- IC50 (BRD9 bromodomain): < 10 nM
- DC50 [1]: < 10 nM
SMILES: COc1cc(-c2cn(C)c(=O)c3cnccc23)cc(OC)c1CN(C)CC(=O)NCCCCCCCCCC(=O)N[C@H](C(=O)N1C[C@H](O)C[C@H]1C(=O)NCc1ccc(-c2scnc2C)cc1)C(C)(C)C (stereo in doubt) [Compound D18, (2S,4R)-1-[(2S)-2-[10-[2-([[2,6-dimethoxy-4-(2-methyl-1-oxo-2,7-naphthyridin-4-yl)phenyl]methyl](methyl)amino)acetamido]decanamido]-3,3-dimethylbutanoyl]-4-hydroxy-N-[[4-(4-methyl-1,3-thiazol-5-yl)phenyl]methyl]pyrrolidine-2-carboxamide]

- IC50 (BRD9 bromodomain): 10 to 100 nM
- DC50 [1]: 100 to 1000 nM
SMILES: COc1cc(-c2cn(C)c(=O)c3cnccc23)cc(OC)c1CN(C)CCN(C)CCOCCOc1cccc2c1C(=O)N(C1CCC(=O)NC1=O)C2=O (centres unmarked) [Compound D1, 4-[2-(2-[[2-([[2,6-dimethoxy-4-(2-methyl-1-oxo-2,7-naphthyridin-4-yl)phenyl]methyl](methyl)amino)ethyl](methyl)amino]ethoxy)ethoxy]-2-(2,6-dioxopiperidin-3-yl)isoindole-1,3-dione; formic acid]

- IC50 (BRD9 bromodomain): 10 to 100 nM
- DC50 [1]: < 10 nM
SMILES: COc1cc(-c2cn(C)c(=O)c3cnccc23)cc(OC)c1CN(C)CC(=O)NCCCCCCCCNc1cccc2c1C(=O)N(C1CCC(=O)NC1=O)C2=O (centres unmarked) [Compound D2, 2-([[2,6-dimethoxy-4-(2-methyl-1-oxo-1,2-dihydro-2,7-naphthyridin-4-yl)phenyl]methyl](methyl)amino)-N-(8-[[2-(2,6-dioxopiperidin-3-yl)-1,3-dioxo-2,3-dihydro-1H-isoindol-4-yl]amino]octyl)acetamide formic acid]

- IC50 (BRD9 bromodomain): 10 to 100 nM
- DC50 [1]: 10 to 100 nM
SMILES: COc1cc(-c2cn(C)c(=O)c3cnccc23)cc(OC)c1CN(C)CC(=O)NCCCCCNc1cccc2c1C(=O)N(C1CCC(=O)NC1=O)C2=O (centres unmarked) [Compound D3, 2-([[2,6-dimethoxy-4-(2-methyl-1-oxo-1,2-dihydro-2,7-naphthyridin-4-yl)phenyl]methyl](methyl)amino)-N-(5-[[2-(2,6-dioxopiperidin-3-yl)-1,3-dioxo-2,3-dihydro-1H-isoindol-4-yl]amino]pentyl)acetamide formic acid]

- DC50 [1]: < 10 nM
SMILES: COc1cc(-c2cn(C)c(=O)c3cnccc23)cc(OC)c1CN(C)C(=O)CCCCCOc1cccc2c1C(=O)N(C1CCC(=O)NC1=O)C2=O (centres unmarked) [Compound D4, N-[[2,6-dimethoxy-4-(2-methyl-1-oxo-1,2-dihydro-2,7-naphthyridin-4-yl)phenyl]methyl]-6-[[2-(2,6-dioxopiperidin-3-yl)-1,3-dioxo-2,3-dihydro-1H-isoindol-4-yl]oxy]-N-methylhexanamide]

- IC50 (BRD9 bromodomain): < 10 nM
- DC50 [1]: < 10 nM
SMILES: COc1cc(-c2cn(C)c(=O)c3cnccc23)cc(OC)c1CN(C)CC(=O)NCCCCCCCCNC(=O)COc1cccc2c1C(=O)N(C1CCC(=O)NC1=O)C2=O (centres unmarked) [Compound D5, N-[8-[2-([[2,6-dimethoxy-4-(2-methyl-1-oxo-1,2-dihydro-2,7-naphthyridin-4-yl)phenyl]methyl](methyl)amino)acetamido]octyl]-2-[[2-(2,6-dioxopiperidin-3-yl)-1,3-dioxo-2,3-dihydro-1H-isoindol-4-yl]oxy]acetamide]

- IC50 (BRD9 bromodomain): 10 to 100 nM
- DC50 [1]: < 10 nM
SMILES: COc1cc(OCC(=O)NCCCCCCCCNc2cccc3c2C(=O)N(C2CCC(=O)NC2=O)C3=O)cc(-c2cn(C)c(=O)c3cnccc23)c1 (centres unmarked) [Compound D6, N-(8-((2-(2,6-dioxopiperidin-3-yl)-1,3-dioxoisoindolin-4-yl)amino)octyl)-2-(3-methoxy-5-(2-methyl-1-oxo-1,2-dihydro-2,7-naphthyridin-4-yl)phenoxy)acetamide]

- IC50 (BRD9 bromodomain): 10 to 100 nM
- DC50 [1]: 10 to 100 nM
SMILES: COc1cc(-c2cn(C)c(=O)c3cnccc23)cc(OC)c1CN(C)CC(=O)N(C)CCCCCNc1cccc2c1C(=O)N(C1CCC(=O)NC1=O)C2=O (centres unmarked) [Compound D7, 2-([[2,6-dimethoxy-4-(2-methyl-1-oxo-1,2-dihydro-2,7-naphthyridin-4-yl)phenyl]methyl](methyl)amino)-N-(5-[[2-(2,6-dioxopiperidin-3-yl)-1,3-dioxo-2,3-dihydro-1H-isoindol-4-yl]amino]pentyl)-N-methylacetamide formic acid]

- IC50 (BRD9 bromodomain): 10 to 100 nM
- DC50 [1]: < 10 nM
SMILES: COc1cc(NCC(=O)NCCCCCCCCNc2cccc3c2C(=O)N(C2CCC(=O)NC2=O)C3=O)cc(-c2cn(C)c(=O)c3cnccc23)c1 (centres unmarked) [Compound D8, N-(8-[[2-(2,6-dioxopiperidin-3-yl)-1,3-dioxo-2,3-dihydro-1H-isoindol-4-yl]amino]octyl)-2-[[3-methoxy-5-(2-methyl-1-oxo-1,2-dihydro-2,7-naphthyridin-4-yl)phenyl]amino]acetamide formic acid]

- IC50 (BRD9 bromodomain): 10 to 100 nM
- DC50 [1]: < 10 nM
SMILES: COc1cc(-c2cn(C)c(=O)c3cnccc23)cc(OCC(=O)NCCCCCCCCNc2cccc3c2C(=O)N(C2CCC(=O)NC2=O)C3=O)c1CN(C)C (centres unmarked) [Compound D9, 2-(2-((dimethylamino)methyl)-3-methoxy-5-(2-methyl-1-oxo-1,2-dihydro-2,7-naphthyridin-4-yl)phenoxy)-N-(8-((2-(2,6-dioxopiperidin-3-yl)-1,3-dioxoisoindolin-4-yl)amino)octyl)acetamide]

- DC50 [1]: > 1000 nM
SMILES: COc1cc(-c2cn(C)c(=O)c3cnccc23)cc(OC)c1CN(C)CCc1cccc2c1C(=O)N(C1CCC(=O)NC1=O)C2=O (centres unmarked) [Compound D17, 4-[2-([[2,6-dimethoxy-4-(2-methyl-1-oxo-2,7-naphthyridin-4-yl)phenyl]methyl](methyl)amino)ethyl]-2-(2,6-dioxopiperidin-3-yl)isoindole-1,3-dione]
